In patent US20260285853A1, “COMPOUNDS AND METHODS FOR MODULATING SPLICING” (REMIX THERAPEUTICS INC., priority 2023, published 2026):

Columns and labels:
Assay type in all cases: cell-based
[1] = system: SH-SY5Y (human neuroblastoma) cells; experiment: Cell viability, Cell Titer Glo 2.0 assay; conditions: read-out: Viability SHSY5Y.3 GI50
In short: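 Viability was read by CellTiter-Glo 2.0 luminescence after a 72-hour compound exposure at 37° C. under 5% CO2. Cells were in IMDM plus 10% FBS containing 0.1% DMSO, and medium-only wells gave the blank.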

HTT mRNA [2] = experiment: Splicing RT-qPCR assay (THP), Table 2A; conditions: Table 2A (THP); for AC50: AJ mRNA increase, read-out: HTT AJ (increase in alternative junction mRNA, AC50); for IC50: CJ mRNA decrease, read-out: HTT CJ (decrease in canonical junction mRNA, IC50)
MYB mRNA [3] = experiment: Splicing RT-qPCR assay (THP), Table 2A; conditions: Table 2A (THP); for AC50: AJ mRNA increase, read-out: MYB AJ (increase in alternative junction mRNA, AC50); for IC50: CJ mRNA decrease, read-out: MYB CJ (decrease in canonical junction mRNA, IC50)
MYB mRNA [4] = experiment: Gene panel canonical junction qPCR assay, decrease in CJ mRNA, Table 3; conditions: decrease in canonical junction (CJ) mRNA, gene panel qPCR, Table 3
In short: (§1)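 IC50 denotes the concentration giving 50% decrease in canonical-junction mRNA, fitted by 4-parameter logistic to percentage response derived from ΔΔCt versus housekeeping gene and DMSO control. Cells (A673 or K562) exposed 24 h to 11-point 3-fold serial dilutions from 10 uM top, DMSO ≤0.25%; junction-spanning primer/probe qPCR.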

HTT mRNA [5] = experiment: as above; conditions: decrease in canonical junction (CJ) mRNA, gene panel qPCR, Table 3
In short: as §1

`COc1cn2nc(C)cc2cc1C(=O)Nc1ccc(N2CCNCC2)c2cn(C)nc12` [Compound 488, 6-methoxy-2-methyl-N-(2-methyl-4-piperazin-1-yl-indazol-7-yl) pyrazolo[1,5-a]pyridine-5-carboxamide] showed a GI50 [1] of over 10 µM, an AC50 (HTT mRNA [2]) of over 10 µM and an IC50 (HTT mRNA [2]) of over 10 µM. It also gave an AC50 (MYB mRNA [3]) of over 10 µM, an IC50 (MYB mRNA [3]) of over 10 µM and an IC50 (MYB mRNA [4]) of over 10 µM. The IC50 (HTT mRNA [5]) was over 10 µM.

`COc1cc2nn(C)cc2cc1C(=O)Nc1ccc(N2CCNCC2)c2cn(C)nc12` [Compound 489, 6-methoxy-2-methyl-N-(2-methyl-4-piperazin-1-yl-indazol-7-yl)-indazole-5-carboxamide] was tested, and the GI50 [1] was over 10 µM, the AC50 (HTT mRNA [2]) was over 10 µM and the IC50 (HTT mRNA [2]) was over 10 µM. The AC50 (MYB mRNA [3]) was over 10 µM, the IC50 (MYB mRNA [3]) was over 10 µM and the IC50 (MYB mRNA [4]) was over 10 µM. It also gave an IC50 (HTT mRNA [5]) of over 10 µM.

Molecule `CC1OB(O)c2cc(NC(=O)c3c(F)cc(N4CCC(NC5CC5)CC4)c4cn(C)nc34)ccc21` (centres unmarked) [Compound 490, 4-(4-(cyclopropylamino)piperidin-1-yl)-6-fluoro-N-(1-hydroxy-3-methyl-1,3-dihydrobenzo[c]-[1,2]oxaborol-6-yl)-2-methyl-2H-indazole-7-carboxamide 2,2,2-trifluoroacetate] has a GI50 [1] of 1 to 10 µM, an AC50 (HTT mRNA [2]) of over 10 µM and an IC50 (HTT mRNA [2]) of over 10 µM. For the same molecule, the AC50 (MYB mRNA [3]) was over 10 µM, the IC50 (MYB mRNA [3]) was 1 to 10 µM and the IC50 (MYB mRNA [4]) was 1 to 10 µM. It also gave an IC50 (HTT mRNA [5]) of over 10 µM.

In the case of `Cc1cc2oc(NC(=O)c3c(F)cc(N4CCC(NC5CC5)CC4)c4cn(C)nc34)cc2c(C)n1` [Compound 491, 4-[4-(cyclopropylamino)-1-piperidyl]-N-(4,6-dimethyl-furo[3,2-c]pyridin-2-yl)-6-fluoro-2-methyl-indazole-7-carboxamide], the GI50 [1] is reported as 1 to 10 µM, the AC50 (HTT mRNA [2]) is reported as over 10 µM and the IC50 (HTT mRNA [2]) is reported as over 10 µM. It also gave an AC50 (MYB mRNA [3]) of over 10 µM, an IC50 (MYB mRNA [3]) of over 10 µM and an IC50 (MYB mRNA [4]) of over 10 µM. The IC50 (HTT mRNA [5]) was over 10 µM.

`Cc1cn2cc(NC(=O)c3ccc(N4CCC(NC5CC5)CC4)c4cn(C)nc34)nc2c(-c2cnsc2)n1` [Compound 492, 4-[4-(cyclopropylamino)-1-piperidyl]-N-(8-isothiazol-4-yl-6-methyl-imidazo[1,2-a]-pyrazin-2-yl)-2-methyl-indazole-7-carboxamide] gave a GI50 [1] of over 10 µM, an AC50 (HTT mRNA [2]) of over 10 µM and an IC50 (HTT mRNA [2]) of over 10 µM. For the same molecule, the AC50 (MYB mRNA [3]) was over 10 µM, the IC50 (MYB mRNA [3]) was over 10 µM and the IC50 (MYB mRNA [4]) was over 10 µM. The IC50 (HTT mRNA [5]) was over 10 µM.

Molecule `CCNCC1CN(c2ccc(C(=O)Nc3cn4cc(C)nc(C)c4n3)c3nn(C)cc23)C1` [Compound 494, N-(6,8-dimethylimidazo[1,2-a]-pyrazin-2-yl)-4-[3-(ethylaminomethyl)azetidin-1-yl]-2-methyl-indazole-7-carboxamide] has a GI50 [1] of over 10 µM, an AC50 (HTT mRNA [2]) of over 10 µM and an IC50 (HTT mRNA [2]) of over 10 µM. It also gave an AC50 (MYB mRNA [3]) of over 10 µM, an IC50 (MYB mRNA [3]) of over 10 µM and an IC50 (MYB mRNA [4]) of over 10 µM. It also gave an IC50 (HTT mRNA [5]) of over 10 µM.

Molecule `Cc1nc(C)c2nc(NC(=O)c3ccc(N4CCC(NC5CC5)CC4)c4cn(C)nc34)cn2c1C` [Compound 495, 4-[4-(cyclopropyl-amino)-1-piperidyl]-2-meth-yl-N-(5,6,8-trimethylimi-dazo-[1,2-a]pyrazin-2-yl)-indazole-7-carboxamide] has a GI50 [1] of 0.1 to 1 µM, an AC50 (HTT mRNA [2]) of 0.1 to 1 µM and an IC50 (HTT mRNA [2]) of 0.1 to 1 µM. It also gave an AC50 (MYB mRNA [3]) of 0.1 to 1 µM, an IC50 (MYB mRNA [3]) of 0.1 to 1 µM and an IC50 (MYB mRNA [4]) of 0.1 to 1 µM. For the same molecule, the IC50 (HTT mRNA [5]) was 0.1 to 1 µM.

Molecule `Cc1cn2cc(NC(=O)c3ccc(N4CC5(CNC5)C4)c4cn(C)nc34)nc2c(C)n1` [Compound 496] has a GI50 [1] of over 10 µM, an AC50 (HTT mRNA [2]) of over 10 µM and an IC50 (HTT mRNA [2]) of over 10 µM. The AC50 (MYB mRNA [3]) was 0.1 to 1 µM, the IC50 (MYB mRNA [3]) was 1 to 10 µM and the IC50 (MYB mRNA [4]) was 1 to 10 µM. For the same molecule, the IC50 (HTT mRNA [5]) was over 10 µM.

With `Cc1cn2cc(NC(=O)c3ccc(N4CC5(CNCCO5)C4)c4cn(C)nc34)nc2c(C)n1` [Compound 497] the GI50 [1] was 1 to 10 µM, the AC50 (HTT mRNA [2]) was over 10 µM and the IC50 (HTT mRNA [2]) was over 10 µM. The AC50 (MYB mRNA [3]) was over 10 µM, the IC50 (MYB mRNA [3]) was over 10 µM and the IC50 (MYB mRNA [4]) was over 10 µM. It also gave an IC50 (HTT mRNA [5]) of over 10 µM.

With `Cc1cn2cc(NC(=O)c3ccc(N4CC(C5CNC5)C4)c4cn(C)nc34)nc2c(C)n1` [Compound 498] the GI50 [1] was over 10 µM, the AC50 (HTT mRNA [2]) was over 10 µM and the IC50 (HTT mRNA [2]) was over 10 µM. It also gave an AC50 (MYB mRNA [3]) of over 10 µM, an IC50 (MYB mRNA [3]) of over 10 µM and an IC50 (MYB mRNA [4]) of over 10 µM. The IC50 (HTT mRNA [5]) was over 10 µM.

`Cc1cn2cc(NC(=O)c3ccc(N4CC(C5CCNCC5)C4)c4cn(C)nc34)nc2c(C)n1` [Compound 499] gave a GI50 [1] of 1 to 10 µM, an AC50 (HTT mRNA [2]) of 1 to 10 µM and an IC50 (HTT mRNA [2]) of 1 to 10 µM. The AC50 (MYB mRNA [3]) was 1 to 10 µM, the IC50 (MYB mRNA [3]) was 1 to 10 µM and the IC50 (MYB mRNA [4]) was 1 to 10 µM. For the same molecule, the IC50 (HTT mRNA [5]) was 1 to 10 µM.
